Assay results as given in US5030449A, “Synthetic vaccine against AIDS virus” (The United States of America as represented by the …, priority 1988, dated 1991).

Test system: HIV envelope-immune murine T cells (lymph node cells of gp160-immunized mice)
Test: Lymph node T-cell proliferation assay ([3H]thymidine incorporation, stimulation index)
Type: cell-based, mouse
Settings: for S.I. (stimulation index, experimental cpm/control cpm): peptide 2 μM
Description: B10.BR/SgSn (H-2^k) and B10.D2/nSn (H-2^d) mice were obtained from the Jackson Laboratories (Bar Harbor, Me.). B10.S(9R)/Sg (H-2^t4) and B10.A(5R)/SgSn (H-2^i5) mice were bred at the NIH breeding colony from breeding pairs obtained from D. J. Stimpfling (Great Falls, Mont.) and from Jackson Laboratories. Mice from the strain B10.S(9R) and B10.A(5R) were chosen because both I-A and I-E molecules of the H-2^s and H-2^b haplotypes are expressed in these recombinant strains, whereas I-E is not expressed in nonrecombinant H-2^b and H-2^s mice.
Mice were immunized s.c. with 10-30 ug of recombinant gp160 1:1 in complete Freund's adjuvant (CFA) at the base of the tail. (The dose was determined according to the purity of the gp160 preparation.) Eight to ten days later, periaortic and inguinal lymph nodes were removed and prepared in a single-cell suspension in complete T-cell medium in accordance with the method of Berkower et al, 1984, J. Immunol., 132:1370. Lymph node cells at 4×10^5 cells per well were added to each well of flat-bottomed 96-well microtiter plates (Costar, Cambridge, Mass.). The 44 peptides were added to the wells to make a final volume of 0.2 ml of medium, and each peptide was tested in triplicate. On the fourth day of culture, 1 uCi of [^3 H]thymidine (6.7 Ci/mmol; New England Nuclear, Boston, Mass.) was added to each well. Eighteen hours later, […] incorporation into DNA, as a measure of proliferation, was determined using liquid scintillation counting. The stimulation index represents a ratio of experimental counts over background counts without antigen.
Mice of the H-2^k, H-2^d, H-^i5, and H-2^t4 haplotypes were immunized s.c. in the tail with recombinant gp160 in CFA at a dose of 20-30 ug per mouse. Eight to ten days later the mice were sacrificed, the periaortic and inguinal lymph nodes were isolated, and proliferation of lymph node cells in the presence or absence of antigen was determined as described herein supra.

WDQSLKPCVKLTPLCV [HP-8, residues 119-134 of HIV envelope]
S.I. (stimulation index, experimental cpm/control cpm) (B10.A(5R) H-2^i5 mice): 1.51 | S.I. (stimulation index, experimental cpm/control cpm) (B10.BR H-2^k mice): 2.24 | S.I. (stimulation index, experimental cpm/control cpm) (B10.D2 H-2^d mice): 1.68 | S.I. (stimulation index, experimental cpm/control cpm) (B10.S(9R) H-2^t4 mice): 1.23 | T-cell proliferative response (in words) (H-2^k mice, initial screening): diminishing response
